{"source": "PubChem BioAssay (NCI)", "test_in_all_cases": "NCI-60 cell line screen, 384-well format", "key": {"T-47D breast": {"tested_on": "T-47D breast"}, "HOP-62 NSCLC": {"tested_on": "HOP-62 NSCLC"}, "OVCAR-4 ovarian": {"tested_on": "OVCAR-4 ovarian"}, "NCI-H522 lung": {"tested_on": "NCI-H522 lung"}, "BT-549 breast": {"tested_on": "BT-549 breast"}, "LOX IMVI melanoma": {"tested_on": "LOX IMVI melanoma"}, "HCC-2998 colon": {"tested_on": "HCC-2998 colon"}, "SF-539 CNS": {"tested_on": "SF-539 CNS"}, "SF-268 CNS": {"tested_on": "SF-268 CNS"}, "COLO 205 colon": {"tested_on": "COLO 205 colon"}, "SR leukemia": {"tested_on": "SR leukemia"}, "HOP-92 NSCLC": {"tested_on": "HOP-92 NSCLC"}, "HT29 colon": {"tested_on": "HT29 colon"}, "SNB-19 CNS": {"tested_on": "SNB-19 CNS"}, "MDA-MB-468 breast": {"tested_on": "MDA-MB-468 breast"}, "SK-MEL-5 melanoma": {"tested_on": "SK-MEL-5 melanoma"}, "K-562 leukemia": {"tested_on": "K-562 leukemia"}, "OVCAR-3 ovarian": {"tested_on": "OVCAR-3 ovarian"}, "SF-295 CNS": {"tested_on": "SF-295 CNS"}, "NCI/ADR-RES ovarian": {"tested_on": "NCI/ADR-RES ovarian"}, "A549 NSCLC": {"tested_on": "A549 NSCLC"}, "PC-3 prostate": {"tested_on": "PC-3 prostate"}, "CCRF-CEM leukemia": {"tested_on": "CCRF-CEM leukemia"}, "UACC-62 melanoma": {"tested_on": "UACC-62 melanoma"}, "NCI-H322M lung": {"tested_on": "NCI-H322M lung"}, "786-0 renal": {"tested_on": "786-0 renal"}, "SW-620 colon": {"tested_on": "SW-620 colon"}, "MDA-MB-435 melanoma": {"tested_on": "MDA-MB-435 melanoma"}, "CAKI-1 renal": {"tested_on": "CAKI-1 renal"}}, "note": "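The concentration for 50% growth inhibition is given as GI50. TGI: total growth inhibition.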"}
{"smiles": "COc1cc2c(Oc3ccc4[nH]c(C)cc4c3F)ccnc2cc1OCC1(N)CC1", "values": [{"measurement": "GI50", "setting": "T-47D breast", "value": 1600, "unit": "nM"}, {"measurement": "TGI", "setting": "T-47D breast", "value": 5360, "unit": "nM"}, {"measurement": "GI50", "setting": "HOP-62 NSCLC", "value": 664, "unit": "nM"}, {"measurement": "TGI", "setting": "HOP-62 NSCLC", "value": 2060, "unit": "nM"}, {"measurement": "GI50", "setting": "OVCAR-4 ovarian", "value": 543, "unit": "nM"}, {"measurement": "TGI", "setting": "OVCAR-4 ovarian", "value": 3180, "unit": "nM"}, {"measurement": "GI50", "setting": "NCI-H522 lung", "value": 274, "unit": "nM"}, {"measurement": "TGI", "setting": "NCI-H522 lung", "value": 672, "unit": "nM"}, {"measurement": "GI50", "setting": "BT-549 breast", "value": 383, "unit": "nM"}, {"measurement": "TGI", "setting": "BT-549 breast", "value": 1190, "unit": "nM"}, {"measurement": "GI50", "setting": "LOX IMVI melanoma", "value": 705, "unit": "nM"}, {"measurement": "TGI", "setting": "LOX IMVI melanoma", "value": 1990, "unit": "nM"}, {"measurement": "GI50", "setting": "HCC-2998 colon", "value": 1370, "unit": "nM"}, {"measurement": "TGI", "setting": "HCC-2998 colon", "value": 2850, "unit": "nM"}, {"measurement": "GI50", "setting": "SF-539 CNS", "value": 270, "unit": "nM"}, {"measurement": "TGI", "setting": "SF-539 CNS", "value": 1140, "unit": "nM"}, {"measurement": "GI50", "setting": "SF-268 CNS", "value": 683, "unit": "nM"}, {"measurement": "TGI", "setting": "SF-268 CNS", "value": 2070, "unit": "nM"}, {"measurement": "GI50", "setting": "COLO 205 colon", "value": 1300, "unit": "nM"}, {"measurement": "TGI", "setting": "COLO 205 colon", "value": 3010, "unit": "nM"}, {"measurement": "GI50", "setting": "SR leukemia", "value": 182, "unit": "nM"}, {"measurement": "TGI", "setting": "SR leukemia", "value": 350, "unit": "nM"}, {"measurement": "GI50", "setting": "HOP-92 NSCLC", "value": 477, "unit": "nM"}, {"measurement": "TGI", "setting": "HOP-92 NSCLC", "value": 1900, "unit": "nM"}, {"measurement": "GI50", "setting": "HT29 colon", "value": 364, "unit": "nM"}, {"measurement": "TGI", "setting": "HT29 colon", "value": 1450, "unit": "nM"}, {"measurement": "GI50", "setting": "SNB-19 CNS", "value": 821, "unit": "nM"}, {"measurement": "TGI", "setting": "SNB-19 CNS", "value": 2970, "unit": "nM"}, {"measurement": "GI50", "setting": "MDA-MB-468 breast", "value": 253, "unit": "nM"}, {"measurement": "TGI", "setting": "MDA-MB-468 breast", "value": 567, "unit": "nM"}, {"measurement": "GI50", "setting": "SK-MEL-5 melanoma", "value": 416, "unit": "nM"}, {"measurement": "TGI", "setting": "SK-MEL-5 melanoma", "value": 1320, "unit": "nM"}, {"measurement": "GI50", "setting": "K-562 leukemia", "value": 421, "unit": "nM"}, {"measurement": "TGI", "setting": "K-562 leukemia", "value": 1390, "unit": "nM"}, {"measurement": "GI50", "setting": "OVCAR-3 ovarian", "value": 278, "unit": "nM"}, {"measurement": "TGI", "setting": "OVCAR-3 ovarian", "value": 797, "unit": "nM"}, {"measurement": "GI50", "setting": "SF-295 CNS", "value": 346, "unit": "nM"}, {"measurement": "TGI", "setting": "SF-295 CNS", "value": 1250, "unit": "nM"}, {"measurement": "GI50", "setting": "NCI/ADR-RES ovarian", "value": 936, "unit": "nM"}, {"measurement": "TGI", "setting": "NCI/ADR-RES ovarian", "value": 2210, "unit": "nM"}, {"measurement": "GI50", "setting": "A549 NSCLC", "value": 1080, "unit": "nM"}, {"measurement": "TGI", "setting": "A549 NSCLC", "value": 3150, "unit": "nM"}, {"measurement": "GI50", "setting": "PC-3 prostate", "value": 809, "unit": "nM"}, {"measurement": "TGI", "setting": "PC-3 prostate", "value": 2290, "unit": "nM"}, {"measurement": "GI50", "setting": "CCRF-CEM leukemia", "value": 722, "unit": "nM"}, {"measurement": "TGI", "setting": "CCRF-CEM leukemia", "value": 1880, "unit": "nM"}, {"measurement": "GI50", "setting": "UACC-62 melanoma", "value": 396, "unit": "nM"}, {"measurement": "TGI", "setting": "UACC-62 melanoma", "value": 1410, "unit": "nM"}, {"measurement": "GI50", "setting": "NCI-H322M lung", "value": 1440, "unit": "nM"}, {"measurement": "TGI", "setting": "NCI-H322M lung", "value": 3420, "unit": "nM"}, {"measurement": "GI50", "setting": "786-0 renal", "value": 465, "unit": "nM"}, {"measurement": "TGI", "setting": "786-0 renal", "value": 1630, "unit": "nM"}, {"measurement": "GI50", "setting": "SW-620 colon", "value": 541, "unit": "nM"}, {"measurement": "TGI", "setting": "SW-620 colon", "value": 1950, "unit": "nM"}, {"measurement": "GI50", "setting": "MDA-MB-435 melanoma", "value": 228, "unit": "nM"}, {"measurement": "TGI", "setting": "MDA-MB-435 melanoma", "value": 497, "unit": "nM"}, {"measurement": "GI50", "setting": "CAKI-1 renal", "value": 881, "unit": "nM"}]}
